Literature values in patent publication US20060106003A1, “Combination of a macrolide t-cell immunomodulator and a calciferol for the treatment of skin diseases or of inflammatory bowel disease” (priority 2003, published 2006).

Tested on: allogeneic kidney transplantation
Conditions: rat, oral administration; suppression of systemic immune response

Q: Which “minimum effective dose (MED)” value does the source give for `C=CC[C@@H]1/C=C(\C)C[C@H](C)C[C@H](OC)[C@H]2O[C@@](O)(C(=O)C(=O)N3CCCC[C@H]3C(=O)O[C@H](/C(C)=C/[C@@H]3CC[C@@H](O)[C@H](OC)C3)[C@H](C)[C@@H](O)CC1=O)[C@H](C)C[C@@H]2OC` [tacrolimus] here?
A: Its value is 14 mg/kg.
